These results are taken from patent publication US9278950B2, “Bicyclic aromatic carboxamide compounds useful as Pim kinase inhibitors” (Incyte Corporation, priority 2013, dated 2016).

What all share (format): biochemical
In one test the target is T1, Pim-1 (Homo sapiens, UniProt P11309).
T1 construct: purchased Invitrogen PV3503
The test can be described thus: Pim-1 kinase assay (Pim enzyme assays, Example A). As to conditions: 1 mM ATP; read-out: Pim1 IC50. The method, then: (§1) Pim-1 and Pim-3 kinase assays-20 μL reactions were run in white 384 well polystyrene plates dotted with 0.8 μL compound/DMSO in the assay buffer (50 mM Tris, pH 7.5, 0.01% Tween-20, 5 mM mgCl2, 0.01% BSA, 5 mM DTT), containing 0.05 μM Biotin-labeled BAD peptide substrate (AnaSpec 62269), 1 mM ATP, and […] (Pim-1, Invitrogen PV3503) or […] (Pim-3, Millipore 14-738) enzyme for 1 h at 25° C. Reactions were stopped by addition of 10 μL STOP Buffer (150 mM Tris, pH=7.5, 150 mM NaCl, 75 mM EDTA, 0.01% Tween-20, 0.3% BSA,) supplemented with Phospho-Bad (Ser 12) Antibody (Cell Signaling 9291) diluted 666-fold, and Streptavidin donor beads (PerkinElmer 6760002) along with Protein-A acceptor beads (PerkinElmer 6760137) at 15 μg/mL each. Supplementation of the STOP buffer with beads and stopping the reactions were done under reduced light. Prior to the stopping reactions STOP buffer with beads was preincubated for 1 h in the dark at room temperature. After stopping the reactions, plates were incubated for 1 h in the dark at room temperature before reading on a PHERAstar FS plate reader (BMG Labtech) under reduced light.

A further test addresses T2, Pim-3 (Homo sapiens, UniProt Q86V86).
T2 construct: purchased Millipore 14-738
The test can be described thus: Pim-3 kinase assay (Pim enzyme assays, Example A). As to conditions: 1 mM ATP; read-out: Pim3 IC50. The method, then: as §1

Another test concerns the target T3, Pim2 (Homo sapiens, UniProt Q9P1W9).
T3 construct: purchased Invitrogen PV3649
The test is described as follows: Pim-2 kinase assay (Pim enzyme assays, Example A). As to conditions: 1 mM ATP; read-out: Pim2 IC50. The method, then: Pim-2 kinase assay—20 μL reactions were run in white 384 well polystyrene plates dotted with 0.8 μL compound/DMSO in the assay buffer (50 mM Tris, pH 7.5, 0.01% Tween-20, 5 mM mgCl2, 0.01% BSA, 5 mM DTT), containing 0.05 μM Fluorescein-labeled CREBtide peptide substrate (Invitrogen PV3508), 1 mM ATP, and 1 nM enzyme (Invitrogen PV3649) for 2 h at 25° C. Reactions were stopped by addition of 10 μL TR-FRET Dilution Buffer (Invitrogen PV3574) with 30 mM EDTA and 1.5 nM LanthaScreen Tb-CREB pSer133 antibody (Invitrogen PV3566). After 30 min. incubation at room temperature, plates were read on a PHERAstar FS plate reader (BMG Labtech).

Broadly, the IC50 is the midpoint of a concentration-inhibition curve.

T1 sequence (P11309 whole entry): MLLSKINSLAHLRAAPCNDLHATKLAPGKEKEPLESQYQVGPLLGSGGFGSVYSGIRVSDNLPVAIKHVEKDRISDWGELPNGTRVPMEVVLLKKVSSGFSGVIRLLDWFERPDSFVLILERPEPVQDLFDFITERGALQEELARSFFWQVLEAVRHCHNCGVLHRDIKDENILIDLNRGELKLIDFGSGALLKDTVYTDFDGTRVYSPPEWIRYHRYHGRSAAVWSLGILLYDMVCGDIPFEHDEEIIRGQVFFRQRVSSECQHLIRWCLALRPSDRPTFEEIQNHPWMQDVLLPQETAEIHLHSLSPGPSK
T3 sequence (Q9P1W9 whole entry): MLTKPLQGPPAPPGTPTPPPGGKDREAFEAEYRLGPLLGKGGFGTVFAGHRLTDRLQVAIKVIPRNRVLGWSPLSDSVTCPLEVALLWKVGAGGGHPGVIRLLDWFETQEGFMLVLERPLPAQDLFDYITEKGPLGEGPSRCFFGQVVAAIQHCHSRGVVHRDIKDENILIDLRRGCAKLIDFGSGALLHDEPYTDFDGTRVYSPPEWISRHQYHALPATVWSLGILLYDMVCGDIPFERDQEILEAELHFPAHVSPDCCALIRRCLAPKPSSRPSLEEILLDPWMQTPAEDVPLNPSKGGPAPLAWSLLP

For the compound `CN(C)Cc1ccc2cc(N)c(C(=O)Nc3cnccc3N3CCC[C@H](N)C3)nc2c1` [Example 20, 3-Amino-N-{4-[(3S)-3-aminopiperidin-1-yl]pyridin-3-yl}-7-[(dimethylamino)methyl]quinoline-2-carboxamide], the values for the IC50 on Pim-1, on Pim-3 and on Pim2 were no more than 100 nM, no more than 100 nM and greater than 2000 nM, respectively.
Regarding `Nc1cc2ccc(CN3CCOCC3)cc2nc1C(=O)Nc1cnccc1N1CCC[C@H](N)C1` [Example 21, 3-Amino-N-{4-[(3S)-3-aminopiperidin-1-yl]pyridin-3-yl}-7-(morpholin-4-ylmethyl)quinoline-2-carboxamide], the half-maximal inhibitory concentration (IC50) was no more than 100 nM at Pim-1, no more than 100 nM at Pim-3 and 100 to 1000 nM at Pim2.
`CCc1ccc2cc(N)c(C(=O)Nc3cnccc3C3CCCC(N)C3)nc2c1` (stereo not drawn) [Example 23, 3-Amino-N-[4-(3-aminocyclohexyl)pyridin-3-yl]-7-ethylquinoline-2-carboxamide]: the results for the IC50 on Pim-1, on Pim-3 and at Pim2 were no more than 100 nM, no more than 100 nM and 100 to 1000 nM, respectively.
`CCc1ccc2cc(N)c(C(=O)Nc3cnc4c(c3N3CCC[C@H](N)C3)CCO4)nc2c1` [Example 24, (S)-3-Amino-N-(4-(3-aminopiperidin-1-yl)-2,3-dihydrofuro[2,3-b]pyridin-5-yl)-7-ethylquinoline-2-carboxamide]: the IC50 was no more than 100 nM at Pim-1, no more than 100 nM on Pim-3 and 100 to 1000 nM at Pim2.
On to `CCc1ccc2cc(N)c(C(=O)Nc3cncc(C)c3N3C[C@@H](N)[C@H](O)[C@@H](C)C3)nc2c1` [Example 28, 3-Amino-N-{4-[(3R,4R,5S)-3-amino-4-hydroxy-5-methylpiperidin-1-yl]-5-methylpyridin-3-yl}-7-ethylquinoline-2-carboxamide], for which the concentration for half-maximal inhibition (IC50) on Pim-1, on Pim-3 and on Pim2 was no more than 100 nM in each case.
On to `CCc1ccc2cc(N)c(C(=O)Nc3cnccc3N3C[C@@H](N)[C@H](O)[C@@H](C)C3)nc2c1` [Example 29, 3-Amino-N-{4-[(3R,4R,5S)-3-amino-4-hydroxy-5-methylpiperidin-1-yl]pyridin-3-yl}-7-ethylquinoline-2-carboxamide], for which the half-maximal inhibitory concentration (IC50) on Pim-1, on Pim-3 and on Pim2 was no more than 100 nM throughout.
Consider `CCc1ccc2cc(N)c(C(=O)Nc3cncc(C)c3N3CCC[C@H](N)C3)nc2c1` [Example 30, 3-Amino-N-{4-[(3S)-3-aminopiperidin-1-yl]-5-methylpyridin-3-yl}-7-ethylquinoline-2-carboxamide], for which the IC50 at Pim-1, on Pim-3 and on Pim2 was no more than 100 nM each time.
Regarding `CCc1ccc2cc(N)c(C(=O)Nc3cnc(OC)cc3N3CCC[C@H](N)C3)nc2c1` [Example 31, 3-Amino-N-{4-[(3S)-3-aminopiperidin-1-yl]-6-methoxypyridin-3-yl}-7-ethylquinoline-2-carboxamide], the IC50 at Pim-1 was greater than 40 nM; at Pim-3 it was no more than 100 nM; on Pim2, greater than 2000 nM.
The matching figures for `CCc1ccc2cc(N)c(C(=O)Nc3cncc(C#N)c3N3CCC[C@H](N)C3)nc2c1` [Example 32, 3-Amino-N-{4-[(3S)-3-aminopiperidin-1-yl]-5-cyanopyridin-3-yl}-7-ethylquinoline-2-carboxamide]: no more than 100 nM, no more than 100 nM and greater than 2000 nM.
The corresponding values for `C[C@H]1CN(c2ccncc2NC(=O)c2nc3cc(N4CCOCC4)ccc3cc2N)C[C@@H](N)[C@@H]1O` [Example 33, 3-Amino-N-{4-[(3R,4R,5S)-3-amino-4-hydroxy-5-methylpiperidin-1-yl]pyridin-3-yl}-7-morpholin-4-ylquinoline-2-carboxamide] are no more than 100 nM, no more than 100 nM and 100 to 1000 nM.
In the case of `C[C@@H]1C[C@H](N)CN(c2ccncc2NC(=O)c2nc3cc(N4CCOCC4)ccc3cc2N)C1` [Example 34, 3-Amino-N-{4-[(3S,5R)-3-amino-5-methylpiperidin-1-yl]pyridin-3-yl}-7-morpholin-4-ylquinoline-2-carboxamide], the IC50 at Pim-1, on Pim-3 and on Pim2 was no more than 100 nM each time.
For `Nc1cc2ccc(N3CCOCC3)cc2nc1C(=O)Nc1cnccc1N1C[C@@H](N)C[C@@H](C(F)(F)F)C1` [Example 35, 3-Amino-N-{4-[(3S,5R)-3-amino-5-(trifluoromethyl)piperidin-1-yl]pyridin-3-yl}-7-morpholin-4-ylquinoline-2-carboxamide], the IC50 on Pim-1 is no more than 100 nM; on Pim-3 it was no more than 100 nM; at Pim2, 100 to 1000 nM.
Consider `C[C@@H]1C[C@H](N)CN(c2ccncc2NC(=O)c2nc3cc(N4CCN(C)CC4)ccc3cc2N)C1` [Example 36, 3-Amino-N-{4-[(3S,5R)-3-amino-5-methylpiperidin-1-yl]pyridin-3-yl}-7-(4-methylpiperazin-1-yl)quinoline-2-carboxamide], for which the concentration for half-maximal inhibition (IC50) at Pim-1, on Pim-3 and on Pim2 was no more than 100 nM each time.
In the case of `CN1CCN(c2ccc3cc(N)c(C(=O)Nc4cnccc4N4C[C@@H](N)C[C@@H](C(F)(F)F)C4)nc3c2)CC1` [Example 37, 3-Amino-N-{4-[(3S,5R)-3-amino-5-(trifluoromethyl)piperidin-1-yl]pyridin-3-yl}-7-(4-methylpiperazin-1-yl)quinoline-2-carboxamide], the IC50 at Pim-1 is no more than 100 nM; on Pim-3, no more than 100 nM; at Pim2, 100 to 1000 nM.
Regarding `C[C@H]1CN(c2ccncc2NC(=O)c2nc3cc(N4CCN(C)CC4)ccc3cc2N)C[C@@H](N)[C@@H]1O` [Example 38, 3-Amino-N-{4-[(3R,4R,5S)-3-amino-4-hydroxy-5-methylpiperidin-1-yl]pyridin-3-yl}-7-(4-methylpiperazin-1-yl)quinoline-2-carboxamide], the IC50 at Pim-1, at Pim-3 and at Pim2 was no more than 100 nM throughout.
Take `Nc1cc2ccc(C3CCOCC3)cc2nc1C(=O)Nc1cnccc1N1C[C@@H](N)C[C@@H](C(F)(F)F)C1` [Example 39, 3-Amino-N-{4-[(3S,5R)-3-amino-5-(trifluoromethyl)piperidin-1-yl]pyridin-3-yl}-7-(tetrahydro-2H-pyran-4-yl)quinoline-2-carboxamide]: the half-maximal inhibitory concentration (IC50) on Pim-1, at Pim-3 and at Pim2 was no more than 100 nM each time.
Regarding `C[C@@H]1C[C@H](N)CN(c2ccncc2NC(=O)c2nc3cc(C4CCOCC4)ccc3cc2N)C1` [Example 40, 3-Amino-N-{4-[(3S,5R)-3-amino-5-methylpiperidin-1-yl]pyridin-3-yl}-7-(tetrahydro-2H-pyran-4-yl)quinoline-2-carboxamide], the IC50 on Pim-1, on Pim-3 and on Pim2 was no more than 100 nM in each case.
Turning to `C[C@H]1CN(c2ccncc2NC(=O)c2nc3cc(C4CCOCC4)ccc3cc2N)C[C@@H](N)[C@@H]1O` [Example 41, 3-Amino-N-{4-[(3R,4R,5S)-3-amino-4-hydroxy-5-methylpiperidin-1-yl]pyridin-3-yl}-7-(tetrahydro-2H-pyran-4-yl)quinoline-2-carboxamide], the IC50 at Pim-1, on Pim-3 and on Pim2 was no more than 100 nM throughout.
For `C[C@H]1CN(c2ccncc2NC(=O)c2nc3cc(C4CCN(C)CC4)ccc3cc2N)C[C@@H](N)[C@@H]1O` [Example 42, 3-Amino-N-{4-[(3R,4R,5S)-3-amino-4-hydroxy-5-methylpiperidin-1-yl]pyridin-3-yl}-7-(1-methylpiperidin-4-yl)quinoline-2-carboxamide], the IC50 at Pim-1, at Pim-3 and at Pim2 was no more than 100 nM in each case.
`C[C@@H]1C[C@H](N)CN(c2ccncc2NC(=O)c2nc3cc(C4CCN(C)CC4)ccc3cc2N)C1` [Example 43, 3-Amino-N-{4-[(3S,5R)-3-amino-5-methylpiperidin-1-yl]pyridin-3-yl}-7-(1-methylpiperidin-4-yl)quinoline-2-carboxamide]: the IC50 on Pim-1, on Pim-3 and on Pim2 was no more than 100 nM each time.
On to `CN1CCC(c2ccc3cc(N)c(C(=O)Nc4cnccc4N4C[C@@H](N)C[C@@H](C(F)(F)F)C4)nc3c2)CC1` [Example 44, 3-Amino-N-{4-[(3S,5R)-3-amino-5-(trifluoromethyl)piperidin-1-yl]pyridin-3-yl}-7-(1-methylpiperidin-4-yl)quinoline-2-carboxamide], for which the IC50 at Pim-1, at Pim-3 and at Pim2 was no more than 100 nM in each case.
